Results published in PMC10657973 (Journal of Pharmaceutical Analysis, 2023).
“Also recorded” adds a separate entry of the source. One block for each molecule: values may come before it.

What was measured:
[1] = system: MRP2; details: read-out: affinity (Km) for MRP2; cited from earlier work
[2] = system: MRP4; details: read-out: affinity (Km) for MRP4; cited from earlier work
[3] = system: P-gp; assay: Specificity: uptake in P-gp-overexpressing cells; assay type: cell-based; details: uptake in overexpressing cells vs control, 4 mM ATP
[4] = biological target: T1, OAT1 (Homo sapiens, UniProt Q4U2R8); assay: Transport kinetics of UTs in HEK293T-OAT1 cells; assay type: cell-based
T1 sequence (Q4U2R8 1-563): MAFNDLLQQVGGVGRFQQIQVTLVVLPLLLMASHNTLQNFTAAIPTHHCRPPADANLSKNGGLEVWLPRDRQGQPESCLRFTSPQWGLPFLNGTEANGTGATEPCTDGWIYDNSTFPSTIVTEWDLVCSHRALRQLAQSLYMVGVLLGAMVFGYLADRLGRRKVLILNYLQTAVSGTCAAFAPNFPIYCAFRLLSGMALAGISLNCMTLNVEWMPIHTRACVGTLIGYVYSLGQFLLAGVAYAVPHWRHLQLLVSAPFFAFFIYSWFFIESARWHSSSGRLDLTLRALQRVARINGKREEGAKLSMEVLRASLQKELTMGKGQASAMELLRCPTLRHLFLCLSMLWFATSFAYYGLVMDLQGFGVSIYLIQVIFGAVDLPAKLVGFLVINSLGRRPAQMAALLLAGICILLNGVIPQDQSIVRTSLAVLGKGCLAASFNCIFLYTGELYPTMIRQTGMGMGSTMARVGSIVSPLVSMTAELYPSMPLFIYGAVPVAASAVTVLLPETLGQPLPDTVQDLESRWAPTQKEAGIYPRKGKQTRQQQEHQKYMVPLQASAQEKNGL

[5] = biological target: T1, OAT1; assay: Uptake of UTs in HEK293T-OAT1 cells; assay type: cell-based; details: 100 μM, 30 min; for uptake of HSA-bound UT in OAT1-overexpressing cells vs control cells / uptake of free UT in OAT1-overexpressing cells vs control cells: 37 °C; for uptake of HSA-bound UT in OAT1-overexpressing cells vs control cells: with HSA; for uptake of free UT in OAT1-overexpressing cells vs control cells: without HSA
[6] = system: MRP2; assay: Accumulation of kynurenic acid in MRP2-overexpressing cells; assay type: cell-based; details: Fig. S15
[7] = system: OAT1/3 and MRP4 double-transfected MDCK cells; details: 37 °C
[8] = system: MRP4; assay: Intracellular accumulation of UTs in MRP4-overexpressing cells; assay type: cell-based, human; details: 100 μM, 30 min
[9] = assay type: in vivo, rats
[10] = system: rMRP4; assay type: in vivo, rats
[11] = biological target: T2, OAT3 (Homo sapiens, UniProt Q8TCC7); assay: Uptake of UTs in HEK293T-OAT3 cells; assay type: cell-based; details: 100 μM, 30 min; for uptake of HSA-bound UT in OAT3-overexpressing cells vs control cells / uptake of free UT in OAT3-overexpressing cells vs control cells: 37 °C; for uptake of HSA-bound UT in OAT3-overexpressing cells vs control cells: with HSA; for uptake of free UT in OAT3-overexpressing cells vs control cells: without HSA
T2 sequence (Q8TCC7 1-542): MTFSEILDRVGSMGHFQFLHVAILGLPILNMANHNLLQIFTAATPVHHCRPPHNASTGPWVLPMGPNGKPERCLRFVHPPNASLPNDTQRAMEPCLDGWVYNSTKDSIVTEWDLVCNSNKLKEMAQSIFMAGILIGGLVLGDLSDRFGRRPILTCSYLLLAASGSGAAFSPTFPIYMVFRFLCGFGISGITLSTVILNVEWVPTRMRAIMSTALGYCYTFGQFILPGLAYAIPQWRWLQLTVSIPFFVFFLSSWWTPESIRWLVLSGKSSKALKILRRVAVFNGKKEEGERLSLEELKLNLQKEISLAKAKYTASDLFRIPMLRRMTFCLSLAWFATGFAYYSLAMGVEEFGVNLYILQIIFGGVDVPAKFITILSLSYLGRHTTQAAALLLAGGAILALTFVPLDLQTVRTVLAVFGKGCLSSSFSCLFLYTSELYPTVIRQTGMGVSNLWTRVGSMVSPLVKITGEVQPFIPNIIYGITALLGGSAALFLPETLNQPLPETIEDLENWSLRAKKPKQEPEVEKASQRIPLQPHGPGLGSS

[12] = Correlation between biomarkers and cefmetazole pharmacokinetics in rats; assay type: in vivo
[13] = system: OAT4; assay: Specificity: uptake in OAT4-overexpressing cells; assay type: cell-based
[14] = system: rOATs; assay: rOATs inhibition experiment
[15] = system: rOAT1/3; assay: rOAT1/3−/− rat experiment; assay type: in vivo, rats
[16] = system: rMRP4; assay type: in vivo, rats; remark: listed apart in the source
[17] = biological target: T2, OAT3; assay: Transport kinetics of UTs in HEK293T-OAT3 cells; assay type: cell-based; details: read-out: Km of OAT3-mediated uptake; HEK293T-OAT3, Michaelis-Menten
[18] = system: MATE2-K; assay: Specificity: uptake in MATE2-K-overexpressing cells; assay type: cell-based; details: uptake in overexpressing cells vs control, pH 8.0
[19] = system: OATP4C1; assay: Specificity: uptake in OATP4C1-overexpressing cells; assay type: cell-based; details: uptake in overexpressing cells vs control
[20] = system: OCT2; assay: Specificity: uptake in OCT2-overexpressing cells; assay type: cell-based; details: uptake in overexpressing cells vs control
[21] = system: PEPT2; assay: Specificity: uptake in PEPT2-overexpressing cells; assay type: cell-based; details: uptake in overexpressing cells vs control
[22] = system: MATE1; assay: Specificity: uptake in MATE1-overexpressing cells; assay type: cell-based; details: uptake in overexpressing cells vs control, pH 8.0
[23] = system: OAT2; assay: Specificity: uptake in OAT2-overexpressing cells; assay type: cell-based; details: uptake in overexpressing cells vs control
[24] = system: URAT1; assay: Specificity: uptake in URAT1-overexpressing cells; assay type: cell-based; details: uptake in overexpressing cells vs control

SMILES: Nc1ccc(C(=O)NCC(=O)O)cc1 [aminohippuric acid]
- Km [1]: 2000 µM
- Km [2]: 160 µM

- transport mediated by P-gp [3]: not mediated
- linear uptake time ([4]; HEK293T-OAT1/3 cells, 100 μM): 0 to 10 min
- uptake at 4 °C in OAT1-overexpressing cells vs control [5]: no significant difference
- uptake of HSA-bound UT in OAT1-overexpressing cells vs control cells [5]: dramatically increased
- substrate of MRP2 [6]: potential substrate of MRP2
- uptake at 37 °C in OAT3-MRP4 cells vs double control cells [7]: significantly increased
- uptake at 4 °C in MRP4-overexpressing cells vs control [8]: no significant difference
- half-life ([9]; rat, urine, iv, 2 mg/kg): 3.7 ± 0.7 h
- rate of metabolism to (d4-)xanthurenic acid in vivo ([9]; rats, d5-kynurenic acid 2 mg/kg i.v.): < 12%
- efflux from hepatocytes into the blood after rMRP4−/− ([10]; Fig. S9): hindered
- renal clearance rate in rMRP4−/− rats vs WT ([10]; rat, in vivo): did not change significantly
- renal tissue concentration in rMRP4−/− rats vs WT ([10]; rat, in vivo): unaffected
- serum levels in rMRP4−/− rats vs WT ([10]; rat, in vivo): did not change significantly
- uptake at 4 °C in OAT3-overexpressing cells vs control [11]: no significant difference
- uptake of HSA-bound UT in OAT3-overexpressing cells vs control cells [11]: dramatically increased
- plasma concentrations in rats treated with PROB ([12]; PROB 60 and 120 mg/kg 7 days, cefmetazole 100 mg/kg i.v.): increased
- correlation of cmax with cefmetazole ([12]; WT and rOAT1/3−/− rats): moderate
- plasma level in rOAT1/3−/− rats vs WT rats ([12]; rat, in vivo): markedly increased
- transport mediated by OAT4 / uptake in OAT4-overexpressing cells vs control [13]: not mediated
- serum levels in rats treated with PROB vs control ([14]; PROB 30, 60, 120 mg/kg oral, 7 days): increased
- renal clearance rate in rOAT1/3−/− rats vs WT ([15]; rat, in vivo): significantly decreased
- serum levels in rOAT1/3−/− rats vs WT ([15]; rat, in vivo): significantly increased
- levels in renal tissues in rats treated with MK-571 vs control ([16]; MK-571 5, 10, 20 mg/kg oral, 7 days): significantly increased
SMILES: O=C(O)c1cc(=O)c2ccccc2[nH]1 [Kynurenic acid, kynurenic acid]
- uptake of free UT in OAT1-overexpressing cells vs control cells [5]: dramatically increased; also recorded: significantly higher
- uptake of free UT in OAT3-overexpressing cells vs control cells [11]: dramatically increased; also recorded: significantly higher

- Km [17]: 2980 µM
- transport mediated by MATE2-K [18]: not mediated
- transport mediated by P-gp [3]: not mediated
- Km ([4]; read-out: Km of OAT1-mediated uptake, HEK293T-OAT1, Michaelis-Menten): 4260 µM
- uptake at 4 °C in OAT1-overexpressing cells vs control [5]: not significantly different
- uptake of HSA-bound UT in OAT1-overexpressing cells vs control cells [5]: dramatically increased
- uptake at 4 °C in MRP4-overexpressing cells vs control [8]: not significantly different
- transport mediated by OATP4C1 [19]: not mediated
- transport mediated by OCT2 [20]: not mediated
- uptake at 4 °C in OAT3-overexpressing cells vs control [11]: not significantly different
- uptake of HSA-bound UT in OAT3-overexpressing cells vs control cells [11]: dramatically increased
- transport mediated by PEPT2 [21]: not mediated
- transport mediated by MATE1 [22]: not mediated
- transport mediated by OAT4 / uptake in OAT4-overexpressing cells vs control [13]: not mediated
- transport mediated by OAT2 [23]: not mediated
- transport mediated by URAT1 [24]: not mediated
- cumulative urinary excretion in rats treated with PROB vs control ([14]; 12 h urine): no significant effects
- serum level in vivo (detectability by LC-MS/MS) ([14]; rats / in vivo): below the detection limit
- cumulative excretion, WT rats ([15]; first value of the printed pair, taken as WT, 12-h urine): 16.16 ± 5.27
- cumulative excretion, rOAT1/3−/− rats ([15]; second value of the pair, taken as knockout, 12-h urine): 8.56 ± 3.43
- cumulative urinary excretion in rats treated with MK-571 vs control ([16]; MK-571 (CMPF effect at 20 mg/kg)): not affected
SMILES: O=C(O)CNC(=O)C=Cc1ccccc1 [N-(cinnamoyl)glycine]
- uptake of free UT in OAT1-overexpressing cells vs control cells [5]: dramatically increased; also recorded: significantly elevated
- intracellular accumulation in MRP4-overexpressing cells vs control cells ([8]; 37 °C, 4 mM ATP): significantly decreased; also recorded: markedly reduced
- uptake of free UT in OAT3-overexpressing cells vs control cells [11]: dramatically increased; also recorded: significantly elevated
